Data reported in patent publication US20190117716A1, “FATTY ACID COMPOSITION AND PHARMACEUTICAL PREPARATION AND APPLICATION THEREOF” (priority 2011, published 2019).

Test: single fatty acids used alone (inventor's research)
Conditions: any one fatty acid used alone, compared with the combination

Row | Compound | curative effect when used alone
1 | CCCCCCCCCCCCCCCC(=O)O [palmitic acid] | relatively unobvious
2 | CCCCCC/C=C\CCCCCCCC(=O)O [palmitoleic acid] | relatively unobvious
3 | CCCCC/C=C\C/C=C\CCCCCCCC(=O)O [linoleic acid] | relatively unobvious
4 | CCCCCCCCCCCCCCCCCCCC(=O)O [arachidic acid] | relatively unobvious
5 | CCCCCCCC/C=C\CCCCCCCC(=O)O [oleic acid] | relatively unobvious
6 | CCCCCCCCCCCCCCCCCC(=O)O [stearic acid] | relatively unobvious
